# Measured values as given in ChEMBL document CHEMBL1155676, “Isolation and biochemical characterization of a new topoisomerase I inhibitor from Ocotea leucoxylon” (J Nat Prod, 2000).
# Calls of active or inactive are those of the source. The rule behind the calls is not given here.
# Legend:
# Saccharomyces cerevisiae [1] = assay: Growth inhibition of Saccharomyces cerevisiae RS321 after 48 hrs by XTT assay; type: functional
# Saccharomyces cerevisiae [2] = assay: Growth inhibition of Saccharomyces cerevisiae RS322 after 48 hrs by XTT assay; type: functional
# Saccharomyces cerevisiae [3] = assay: Growth inhibition of Saccharomyces cerevisiae RJ03 after 48 hrs by XTT assay; type: functional
# Bos taurus = species on record: Bos taurus; assay: Inhibition of calf thymus DNA topoisomerase 1-mediated supercoiled pSP64 plasmid DNA relaxation at 20 uM
# B16-F10 = assay: Cytotoxicity against mouse B16F10 cells upto 30 uM; type: functional, cell-based
# [4] = target: T1, DNA topoisomerase 1 (Homo sapiens) (UniProt P11387); assay: Induction of human recombinant topoisomerase 1-mediated pBR322 plasmid DNA cleavage assessed as increase in nicked form 2 at 100 uM after 60 mins
# T1 sequence (whole entry): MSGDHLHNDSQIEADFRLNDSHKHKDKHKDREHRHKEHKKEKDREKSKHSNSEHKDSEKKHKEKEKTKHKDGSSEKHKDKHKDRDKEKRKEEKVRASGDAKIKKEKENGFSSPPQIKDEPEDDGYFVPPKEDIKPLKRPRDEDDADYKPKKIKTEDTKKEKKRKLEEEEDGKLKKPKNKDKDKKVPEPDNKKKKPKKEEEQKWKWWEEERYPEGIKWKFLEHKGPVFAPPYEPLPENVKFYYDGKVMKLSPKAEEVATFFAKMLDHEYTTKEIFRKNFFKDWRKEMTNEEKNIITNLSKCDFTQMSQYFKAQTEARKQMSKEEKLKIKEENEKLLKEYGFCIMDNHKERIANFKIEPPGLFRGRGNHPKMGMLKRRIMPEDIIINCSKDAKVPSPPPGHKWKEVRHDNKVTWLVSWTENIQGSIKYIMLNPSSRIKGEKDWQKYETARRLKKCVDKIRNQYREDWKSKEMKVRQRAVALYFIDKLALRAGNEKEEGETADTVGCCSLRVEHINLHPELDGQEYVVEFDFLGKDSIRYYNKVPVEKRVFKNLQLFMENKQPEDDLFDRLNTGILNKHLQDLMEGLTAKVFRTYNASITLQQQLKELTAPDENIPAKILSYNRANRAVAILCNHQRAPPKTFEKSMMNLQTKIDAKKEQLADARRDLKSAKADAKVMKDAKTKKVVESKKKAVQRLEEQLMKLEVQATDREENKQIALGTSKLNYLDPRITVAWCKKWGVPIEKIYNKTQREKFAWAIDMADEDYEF
# P388 [5] = assay: Cytotoxicity against mouse P388 cells by soft-agar colony-formation assay; type: functional, cell-based
# [6] = target: T1, DNA topoisomerase 1 (Homo sapiens); assay: Inhibition of human recombinant DNA topoisomerase 1-mediated pBR322 DNA relaxation activity at 20 to 200 uM after 30 mins by gel electrophoresis
# COLO 205 = assay: Cytotoxicity against human COLO205 cells upto 30 uM; type: functional, cell-based
# P388 [7] = assay: Cytotoxicity against camptothecin-resistant mouse P388 cells by soft-agar colony-formation assay; type: functional, cell-based
# Mus musculus = species on record: Mus musculus; assay: Cytotoxicity against mouse lung carcinoma cells upto 30 uM; type: functional, cell-based
smiles,measurement,setting,value
COc1cc2c(cc1OC)-c1c3c(cc4c1[C@H](C2)N(C)CC4)OCO3,Activity,Saccharomyces cerevisiae [1],inactive
same,Activity,Saccharomyces cerevisiae [2],inactive
same,Activity,Saccharomyces cerevisiae [3],inactive
COc1cc2c[n+](C)c3c4cc5c(cc4ccc3c2cc1OC)OCO5,Activity,Bos taurus,Active
COc1cc2c(cc1OC)-c1c3c(cc4ccnc(c14)C2=O)OCO3 [DICENTRINONE],IC12,Saccharomyces cerevisiae [1],> 2000 µg/mL
same,Activity,B16-F10,Not toxic
same,Activity,[4],29%
same,IC50,P388 [5],100 µM
same,Activity,[6],inactive
same,Activity,COLO 205,Not toxic
same,IC12,Saccharomyces cerevisiae [2],49 µg/mL
same,IC50,P388 [7],100 µM
same,Activity,Mus musculus,Not toxic
same,IC12,Saccharomyces cerevisiae [3],> 2000 µg/mL
